Laboratory results: publication PMC9296036, “A peptide interfering with the dimerization of oncogenic KITENIN protein and its stability suppresses colorectal tumour progression” (Clinical and Translational Medicine, 2022)
Ends that are not written are not given here.

Tests used:
KITENIN [1] = target: T1, KITENIN (Homo sapiens, UniProt Q8TAA9); assay: Endogenous KITENIN protein level in HCT116 cells (immunoblot); format: cell-based; conditions: non-transfected HCT116 cells, KDIP 1 μM, 12 h
T1 construct: decreased endogenous KITENIN protein levels in non‐transfected HCT116 and CT‐26 cells; endogenous in cells; host or cells: HCT116
T1 sequence (Q8TAA9 1-524): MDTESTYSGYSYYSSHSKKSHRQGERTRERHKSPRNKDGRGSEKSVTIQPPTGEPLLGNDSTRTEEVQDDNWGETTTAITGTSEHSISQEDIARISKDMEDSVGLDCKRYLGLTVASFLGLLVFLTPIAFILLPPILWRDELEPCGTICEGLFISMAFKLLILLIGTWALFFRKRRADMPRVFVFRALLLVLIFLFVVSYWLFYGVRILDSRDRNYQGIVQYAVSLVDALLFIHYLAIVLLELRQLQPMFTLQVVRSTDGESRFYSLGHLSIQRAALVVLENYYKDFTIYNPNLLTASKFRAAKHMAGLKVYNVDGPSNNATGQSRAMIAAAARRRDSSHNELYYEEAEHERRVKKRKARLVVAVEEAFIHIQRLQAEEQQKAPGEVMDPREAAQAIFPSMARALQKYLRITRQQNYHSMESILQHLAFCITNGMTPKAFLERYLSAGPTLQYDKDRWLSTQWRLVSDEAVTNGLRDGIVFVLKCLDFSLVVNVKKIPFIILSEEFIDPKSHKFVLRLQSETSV
Excerpt: (§1) Antibodies against the following proteins were obtained from the indicated suppliers: Na^+/K^+ ATPase, GFP and tubulin (Santa Cruz Biotechnology); c‐Jun, p‐c‐Jun, ERK, p‐ERK, c‐MET, p‐c‐MET and GST (Cell Signaling Technology); V5, Myc (MBL); HA and β‐actin (Sigma); KITENIN (Atlas); His and RACK1, LC3, p62, Myo10, and eukaryotic elongation factor 2 (eEF2) (Abcam). They were used with appropriate secondary antibodies (Thermo). For transient transfection analyses, Caco2, HCT116 and 293T cells were transfected with various plasmids and harvested for immunoblot analysis 48 h after transfection. For most assays using stable cell lines, mixed polyclonal cells were used to exclude clonal variation. […]
(§2) FIGURE 2 KAI1 C‐terminal interacting tetraspanin (KITENIN) dimerization‐interfering peptide (KDIP) suppresses KITENIN‐induced enhanced cell invasion through the inhibition of the homodimerization of KITENIN. […] After 48 h of treatment, KITENIN transcripts in cells were analysed by the 2^−ΔΔ ^CT method using Q‐PCR. […] Caco2 cells were co‐transfected with KITENIN‐V5/Myc and treated with or without KDIP or scrambled peptide (scr) and were immunoprecipitated with anti‐V5 antibody and detected by indicated antibodies. Numerals indicated a quantification of the MYC bands normalized to the corresponding V5 bands (left panel). […] Numerals indicated a quantification of the bands observed (left panel). […]

KITENIN [2] = target: T2, KITENIN (Mus musculus, UniProt Q80Z96); assay: Endogenous KITENIN protein level in CT-26 cells (immunoblot); format: cell-based; conditions: non-transfected CT-26 cells, KDIP 1 μM, 12 h
T2 construct: decreased endogenous KITENIN protein levels in non‐transfected HCT116 and CT‐26 cells; endogenous in cells; host or cells: CT-26
T2 sequence (Q80Z96 1-526): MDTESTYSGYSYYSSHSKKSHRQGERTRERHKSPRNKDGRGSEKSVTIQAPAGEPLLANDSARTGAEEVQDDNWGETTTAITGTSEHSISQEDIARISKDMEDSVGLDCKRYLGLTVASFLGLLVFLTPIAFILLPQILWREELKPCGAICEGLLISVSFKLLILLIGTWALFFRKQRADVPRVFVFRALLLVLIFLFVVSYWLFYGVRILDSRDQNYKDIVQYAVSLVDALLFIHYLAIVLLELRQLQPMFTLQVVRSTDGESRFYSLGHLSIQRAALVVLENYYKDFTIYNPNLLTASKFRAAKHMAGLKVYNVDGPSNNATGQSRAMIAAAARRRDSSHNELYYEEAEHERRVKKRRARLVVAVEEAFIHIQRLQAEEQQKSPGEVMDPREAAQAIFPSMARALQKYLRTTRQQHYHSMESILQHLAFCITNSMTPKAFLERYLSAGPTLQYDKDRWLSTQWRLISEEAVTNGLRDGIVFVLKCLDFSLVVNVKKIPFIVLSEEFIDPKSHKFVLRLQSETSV
Excerpt: as §1, §2

YARVRRRGPRRWRLVSDEAV [KDIP]
endogenous KITENIN protein level (in words) (KITENIN [1]): decreased
endogenous KITENIN protein level (in words) (KITENIN [2]): decreased
